Measurements published in US11932885B2, “Use of glutamine synthetase for treating hyperammonemia” (Thoeris GmbH, priority 2017, dated 2024).

Columns and labels:
[1] = test system: BDL rats; experiment: Ammonia blood levels in BDL rats; type: in vivo; conditions: BDL rats on hyperammonemic diet
Description: All experiments were performed in accordance with the Animals (Scientific Procedures) Act of 1986, which was revised according to the European Directive2010/63/EU. All animals received humane care according to the criteria outlined in the Guide for the Care and Use of Laboratory Animals (National Institutes of Health publication 86-23; revised 1985). All the animals used in these experiments were Male Sprague-Dawley rats (body weight, 250 g at the beginning of the experiments) were obtained from Charles River Laboratories (Kent, UK) and divided into 5 groups: bile duct ligated animals+ammonia+saline serum (BDL+HA+SS, n=6), bile duct ligated animals+ammonia+sodium phenylacetate (BDL+HA+SP, n=6), bile duct ligated animals+ammonia+sodium phenylacetate+glutamine synthetase (BDL+HA+SP+GS, n=5), bile duct ligated animals+ammonia+glutamine synthetase (BDL+HA+GS, n=6), sham-operated animals+glutamine synthetase (SHAM+GS, n=5). Treatment comprising SP and GS may be referred to as “COMBO”. […]
Plasma samples were collected from the leg vein at different timepoints in all groups. The timepoints were counted after the treatment with glutamine synthetase as follows: 6 hours, 24 hours, 48 hours and 5 days. […]

[2] = test system: BDL rats; experiment: Brain oedema in the prefrontal cortex of BDL rats (dry weight technique); type: in vivo; conditions: versus control without treatment
Description: (§1) All experiments were performed in accordance with the Animals (Scientific Procedures) Act of 1986, which was revised according to the European Directive2010/63/EU. All animals received humane care according to the criteria outlined in the Guide for the Care and Use of Laboratory Animals (National Institutes of Health publication 86-23; revised 1985). All the animals used in these experiments were Male Sprague-Dawley rats (body weight, 250 g at the beginning of the experiments) were obtained from Charles River Laboratories (Kent, UK) and divided into 5 groups: bile duct ligated animals+ammonia+saline serum (BDL+HA+SS, n=6), bile duct ligated animals+ammonia+sodium phenylacetate (BDL+HA+SP, n=6), bile duct ligated animals+ammonia+sodium phenylacetate+glutamine synthetase (BDL+HA+SP+GS, n=5), bile duct ligated animals+ammonia+glutamine synthetase (BDL+HA+GS, n=6), sham-operated animals+glutamine synthetase (SHAM+GS, n=5). Treatment comprising SP and GS may be referred to as “COMBO”.
This was measured using the dry weight technique as described previously. […] The dry weight was determined after Eppendorf's loaded with individual brain samples were dried in an oven at 60° C. for 7 days. Tissue water content was then calculated as % H2O=(1-dry wt/wet wt)×100%.

[3] = test system: BDL rats; experiment: RotaRod-Accelerod test in BDL rats; type: in vivo
Description: as §1
This test of motor performance consists of a motor-driven rotating rod that enables us to assess motor coordination and resistance to fatigue (Jones and Roberts 1968). […] Latency to fall off the rod and the actual rotation speed were recorded in the pre- and post-treatment conditions for all groups after 1 hour treatment.

[4] = mouse, in vivo, sc, 2.5 mg/kg
Description: The ELISA was conducted according to the protocol outlined by the manufacturer (Abcam PEG ELISA kit, ab133065). […] N=2 animals in each group.

Compound	ammonia levels in the blood [1]	brain oedema in the prefrontal cortex [2]	rotarod grip test performance [3]	plasma level (PEG ELISA) [4]
O=C([O-])Cc1ccccc1.[Na+] [SP, sodium phenylacetate]	significant reduction of ammonia levels in the blood	did not statistically significantly reduce the swelling	did not lead to stastically significant effects	–
wt GS: Non-conjugated human glutamine synthetase with N-terminal His-tag and GGGGS linker (SEQ ID NO: 4), expressed in E. coli	–	–	–	very low or undetectable levels
